Source: patent US9170257B2 (priority 2012, dated 2015)
Like-named read-outs stand apart in the source and are kept apart here.

Assay: Tissue distribution of curcumin and THC at necropsy 15 minutes post-infusion
Set-up: species or system Beagle dogs
Conditions: for Plasma concentration used to calculate Kp: average of end of infusion and 15 minutes post infusion; for concentration at 15 min / Kp at 2 h / Kp at 8 h: both sexes, dog, in vivo, 10 mg/kg; for Kp at 2 h: 2 hr infusion; for Kp at 2 h / Kp at 8 h: H3PO4 stabilized; for Kp at 8 h: 8 hr infusion
Description: The test article will be administered to 8 Beagle dogs by intravenous infusion over two hours (Part A) or eight hours (Part B) as shown in Table 6.
Multiple samples of tissue weighing approximately 1 gram were removed and snap frozen in the presence or absence of phosphoric acid (H3PO4). For all tissue samples, the levels of curcumin and THC were determined using a method developed by the Bioanalytical Department at Nucro-Technics. […] Values that were below the limit of quantification were assigned a value of 0. […] Tissue distribution data was analyzed using, unless stated, the data from 4 dogs and are presented as the mean±standard error (S.E.).

[1] = beagle, read-out: Kp [tissue]/[plasma], Brain Stem
[2] = beagle, read-out: Kp [tissue]/[plasma], Cortex, Brain
[3] = beagle, read-out: Kp [tissue]/[plasma], Hippocampus
[4] = beagle, read-out: Kp [tissue]/[plasma], Kidney
[5] = beagle, read-out: Kp [tissue]/[plasma], Liver
[6] = beagle, read-out: Kp [tissue]/[plasma], Lungs
[7] = beagle, read-out: Kp [tissue]/[plasma], Muscle
[8] = beagle, read-out: Kp [tissue]/[plasma], Pancreas
[9] = beagle, read-out: Kp [tissue]/[plasma], Striatum

In the case of `COc1cc(CCC(=O)CC(=O)CCc2ccc(O)c(OC)c2)ccc1O` [THC, tetrahydrocurcumin], the “Tissue level, Liver” value (2 hour infusion, Plus H3PO4) is reported as 0.45 ng/g, the “Tissue level, Lungs” value (2 hour infusion, Plus H3PO4) is reported as 2.14 ng/g and the “Plasma concentration used to calculate Kp” value (2 hours infusion) is reported as 810.9 ng/mL. The “Tissue level, Lungs” value (8 hour infusion, Plus H3PO4) was 6.36 ng/g, the “Plasma concentration used to calculate Kp” value (8 hours infusion) was 104.5 ng/mL and the concentration at 15 min (Beagle, 2 hour infusion, No H3PO4, read-out: Tissue level, Brain Stem) was 2.34 ng/g. It also gave a concentration at 15 min (beagle, 2 hour infusion, No H3PO4, read-out: Tissue level, Cortex, Brain) of 0.68 ng/g, a concentration at 15 min (beagle, 2 hour infusion, No H3PO4, read-out: Tissue level, Heart) of 2.51 ng/g and a concentration at 15 min (beagle, 2 hour infusion, No H3PO4, read-out: Tissue level, Hippocampus) of 0.75 ng/g. The concentration at 15 min (beagle, 2 hour infusion, No H3PO4, read-out: Tissue level, Kidney) was 3.06 ng/g, the concentration at 15 min (beagle, 2 hour infusion, No H3PO4, read-out: Tissue level, Liver) was 1.9 ng/g and the concentration at 15 min (beagle, 2 hour infusion, No H3PO4, read-out: Tissue level, Lungs) was 25 ng/g. The concentration at 15 min (beagle, 2 hour infusion, No H3PO4, read-out: Tissue level, Muscle) was 5.26 ng/g, the concentration at 15 min (beagle, 2 hour infusion, No H3PO4, read-out: Tissue level, Pancreas) was 2.02 ng/g and the concentration at 15 min (beagle, 2 hour infusion, No H3PO4, read-out: Tissue level, Striatum) was 6.22 ng/g. The concentration at 15 min (beagle, 2 hour infusion, No H3PO4, read-out: Tissue level, Urinary Bladder) was 0.84 ng/g, the concentration at 15 min (beagle, 2 hour infusion, Plus H3PO4, read-out: Tissue level, Brain Stem) was 10.6 ng/g and the concentration at 15 min (beagle, 2 hour infusion, Plus H3PO4, read-out: Tissue level, Cortex, Brain) was 3.08 ng/g. The concentration at 15 min (beagle, 2 hour infusion, Plus H3PO4, read-out: Tissue level, Heart) was 0.69 ng/g, the concentration at 15 min (beagle, 2 hour infusion, Plus H3PO4, read-out: Tissue level, Hippocampus) was 6.46 ng/g and the concentration at 15 min (beagle, 2 hour infusion, Plus H3PO4, read-out: Tissue level, Kidney) was 4.25 ng/g. For the same compound, the concentration at 15 min (beagle, 2 hour infusion, Plus H3PO4, read-out: Tissue level, Muscle) was 4.19 ng/g, the concentration at 15 min (beagle, 2 hour infusion, Plus H3PO4, read-out: Tissue level, Pancreas) was 0.92 ng/g and the concentration at 15 min (beagle, 2 hour infusion, Plus H3PO4, read-out: Tissue level, Striatum) was 11.1 ng/g. The concentration at 15 min (beagle, 2 hour infusion, Plus H3PO4, read-out: Tissue level, Urinary Bladder) was 0.87 ng/g, the Kp at 2 h [1] was 0.0037 and the Kp at 2 h [2] was 0.0006. The Kp at 2 h [3] was 0.0014, the Kp at 2 h [4] was 0.0025 and the Kp at 2 h [5] was 0.0028. The Kp at 2 h [6] was 0.0078, the Kp at 2 h [7] was 0.0011 and the Kp at 2 h [8] was 0.0017. For the same compound, the Kp at 2 h [9] was 0.0039, the Kp at 2 h (beagle, read-out: Kp [tissue]/[plasma], Urinary Bladder) was 0.0014 and the concentration at 15 min (beagle, 8 hour infusion, No H3PO4, read-out: Tissue level, Brain Stem) was 0.83 ng/g. For the same compound, the concentration at 15 min (beagle, 8 hour infusion, No H3PO4, read-out: Tissue level, Cortex, Brain) was 0.06 ng/g, the concentration at 15 min (beagle, 8 hour infusion, No H3PO4, read-out: Tissue level, Heart) was 0.51 ng/g and the concentration at 15 min (beagle, 8 hour infusion, No H3PO4, read-out: Tissue level, Hippocampus) was 0.01 ng/g. The concentration at 15 min (beagle, 8 hour infusion, No H3PO4, read-out: Tissue level, Kidney) was 1.32 ng/g, the concentration at 15 min (beagle, 8 hour infusion, No H3PO4, read-out: Tissue level, Liver) was 2.63 ng/g and the concentration at 15 min (beagle, 8 hour infusion, No H3PO4, read-out: Tissue level, Lungs) was 10.8 ng/g. It also gave a concentration at 15 min (beagle, 8 hour infusion, No H3PO4, read-out: Tissue level, Muscle) of 0.38 ng/g, a concentration at 15 min (beagle, 8 hour infusion, No H3PO4, read-out: Tissue level, Pancreas) of 0.34 ng/g and a concentration at 15 min (beagle, 8 hour infusion, No H3PO4, read-out: Tissue level, Striatum) of 1.12 ng/g. It also gave a concentration at 15 min (beagle, 8 hour infusion, No H3PO4, read-out: Tissue level, Urinary Bladder) of 1.37 ng/g, a concentration at 15 min (beagle, 8 hour infusion, Plus H3PO4, read-out: Tissue level, Brain Stem) of 3.02 ng/g and a concentration at 15 min (beagle, 8 hour infusion, Plus H3PO4, read-out: Tissue level, Cortex, Brain) of 0.49 ng/g. It also gave a concentration at 15 min (beagle, 8 hour infusion, Plus H3PO4, read-out: Tissue level, Heart) of 0.03 ng/g, a concentration at 15 min (beagle, 8 hour infusion, Plus H3PO4, read-out: Tissue level, Hippocampus) of 1.13 ng/g and a concentration at 15 min (beagle, 8 hour infusion, Plus H3PO4, read-out: Tissue level, Kidney) of 2.04 ng/g. For the same compound, the concentration at 15 min (beagle, 8 hour infusion, Plus H3PO4, read-out: Tissue level, Liver) was 2.25 ng/g, the concentration at 15 min (beagle, 8 hour infusion, Plus H3PO4, read-out: Tissue level, Muscle) was 0.93 ng/g and the concentration at 15 min (beagle, 8 hour infusion, Plus H3PO4, read-out: Tissue level, Pancreas) was 1.34 ng/g. The concentration at 15 min (beagle, 8 hour infusion, Plus H3PO4, read-out: Tissue level, Striatum) was 3.14 ng/g, the concentration at 15 min (beagle, 8 hour infusion, Plus H3PO4, read-out: Tissue level, Urinary Bladder) was 1.11 ng/g and the Kp at 8 h [1] was 0.0289. It also gave a Kp at 8 h [2] of 0.0047, a Kp at 8 h (beagle, read-out: Kp [tissue]/[plasma], Heart) of 0.0003 and a Kp at 8 h [3] of 0.0108. For the same compound, the Kp at 8 h [4] was 0.0195, the Kp at 8 h [5] was 0.0215 and the Kp at 8 h [6] was 0.0609. The Kp at 8 h [7] was 0.0089, the Kp at 8 h [8] was 0.0128 and the Kp at 8 h [9] was 0.03.
